Test system: wheat seeds
Experiment: Effect of preservative on promotion of wheat seedling root growth by black tea extract (Example 10)
Assay type: in vivo
Conditions: 1% solution of methyl paraben predissolved in hexalene glycol
Method: To evaluate whether a preservative affects the benefits of black tea extracts on wheat germination and early root growth, Malawi black tea extracts and Kenya black tea extracts were prepared according to Example 1 and used to treat wheat seeds (0.6 ml/kg seed) in combination with a preservative (1% solution of methyl paraben that has been predissolved in hexalene glycol (30:1 ratio of hexalene glycol to methyl paraben)) or without the preservative substantially according to Example 2. Root system measurements were performed according to Example 6.

`COC(=O)c1ccc(O)cc1` [methyl paraben] was tested, and the “effect of preservative on the benefits of the black tea extracts” value was “did not negatively affect”.

— patent US20150257394A1, “TEA EXTRACTS AND USES IN PROMOTING PLANT GROWTH” (PLANT ACTIVITY LTD., priority 2012, published 2015)
